Earlier results, collected in US20250009831A1, “COMBINATION OF SCUTELLARIA EXTRACTS WITH CITRUS BERGAMIA OR CYNARA CARDUNCULUS EXTRACTS AND FORMULATIONS CONTAINING THEM” (AKHYNEX S.R.L., priority 2021, published 2025).

Test system: rats treated with orotic acid to induce fatty liver disease

What does the source list for `O=C(O)[C@H]1O[C@@H](Oc2cc3oc(-c4ccccc4)cc(=O)c3c(O)c2O)[C@H](O)[C@@H](O)[C@@H]1O` [baicalin]?
FFA-induced lipotoxicity (rat, in vivo): had a preventive effect on FFA-induced lipotoxicity; accumulation of fats in the liver (rats treated with orotic acid): inhibited the accumulation of fats in the liver; hypertrophy of the hepatocytes (rats treated with orotic acid): attenuated hypertrophy of the hepatocytes
